Reference: PMC6292454 (Biochemical Journal, 2018)
Read-outs that look alike come from different tables or passages of the source.

Legend:
[1] = molecular target: T1, NA2009wt (recombinant neuraminidase) (Influenza A virus, UniProt C3W6G3); assay: biochemical; assay type: biochemical, A/California/07/2009 (H1N1) influenza virus; conditions: for Ki values, fluorometric assay, as described in the text / decrease in potency relative to oseltamivir carboxylate (4): pH 6.15; for Ki values, fluorometric assay, as described in the text: units given in the value; for decrease in potency relative to oseltamivir carboxylate (4): fluorometric assay
[2] = molecular target: T1, NA2009wt (recombinant neuraminidase); assay: biochemical; assay type: binding, A/California/07/2009 (H1N1) influenza virus

Row | Compound | Ki [1] | Ki [2] | Ki values, fluorometric assay, as described in the text [1] | decrease in potency relative to oseltamivir carboxylate (4) [1]
1 | CCC(CC)O[C@@H]1C=C(P(=O)(O)O)C[C@H](N)[C@H]1NC(C)=O [compound 2, tamiphosphor, reference compound] | 26 ± 4 nM | 52 ± 9 nM |  | 
2 | CCC(CC)O[C@@H]1C=C(C(=O)O)C[C@H](N[C@@H](CC(=O)O)C(=O)O)[C@H]1NC(C)=O (mixture of isomers) [compound 10] |  |  | micromolar range | 
3 | CCC(CC)O[C@@H]1C=C(C(=O)O)C[C@H](NC(=O)COCCOCCOC)[C@H]1NC(C)=O [compound 11] |  |  | micromolar range | 
4 | CCC(CC)O[C@@H]1C=C(C(=O)O)C[C@H](N[C@H](C)C(=O)O)[C@H]1NC(C)=O [compound 9] | 250 ± 40 nM | 960 ± 260 nM |  | ~10 fold
5 | CCC(CC)O[C@@H]1C=C(C(=O)O)C[C@H](N[C@@H](C)C(=O)O)[C@H]1NC(C)=O [compound 8] | 15 ± 2 nM | 170 ± 60 nM |  | comparable to that of oseltamivir carboxylate
